Measurements: patent US20260226049A1, “NITROGEN-CONTAINING HETEROCYCLIC COMPOUND, PREPARATION METHOD THEREFOR, AND USE THEREOF” (BIVISION PHARMACEUTICALS, INC, priority 2023, published 2026)
Read-outs that look alike come from different tables or passages of the source.

Tests used:
HT1080 8 #cells = assay: Cell competitive binding assay against ^177Lu-radiolabeled FAPi-46
Description: (1) HT1080 8 #cells in the logarithmic growth phase were prepared into a cell suspension, and the cell density was adjusted to 1×10^4/mL. 1 mL of the suspension was seeded into a 24-well cell culture plate. The plate was incubated overnight in a 37° C. incubator.
(2) The cell culture medium was aspirated, and the cells were washed once with PBS, followed by the addition of 975 μL of additive-free medium.
(3) To each well, 25 µL of ^177Lu-radiolabeled FAPi-46 (Nanchang Tanzhen Biotechnology Co., Ltd., CAS: 2374782-04-2) at a fixed concentration (final concentration in culture medium: 1.35 μCi/mL) and varying concentrations (final concentrations in culture medium: 1000 ng/mL, 100 ng/ml, 10 ng/ml, 1 ng/mL, 0.1 ng/ml, 0.01 ng/mL, 0.001 ng/mL, 0 ng/ml) of unlabeled test compounds JHH8, JHDB8, and JHH9 were added.
(4) The mixture was incubated on ice for 2 hours.
(5) The cells were washed three times with ice-cold PBS.
(6) The cells were lysed with 0.5 mL of 1 M sodium hydroxide, washed twice with 0.5 mL of PBS, and the sodium hydroxide solution (0.5 mL) and PBS solutions (0.5 mL×2) were collected for uptake counting.
The control compound was OncoFAP-DOTAGA (structural formula: […]
The cell competitive binding of compounds JHH5, JHH4, JHH10, JHH8, H4b, H5b, and H8b was tested in the same batch using the above method, and the experimental results are shown in Table 3 and FIG. 3.

FAP protein = molecular target: T1, FAP protein (Homo sapiens, UniProt Q12884); assay: Biacore test of ligand binding to FAP protein; conditions: FAP protein on SA chip, 15° C., 1:1 binding model
T1 construct: purchased Sinobiological
T1 sequence (Q12884 1-760): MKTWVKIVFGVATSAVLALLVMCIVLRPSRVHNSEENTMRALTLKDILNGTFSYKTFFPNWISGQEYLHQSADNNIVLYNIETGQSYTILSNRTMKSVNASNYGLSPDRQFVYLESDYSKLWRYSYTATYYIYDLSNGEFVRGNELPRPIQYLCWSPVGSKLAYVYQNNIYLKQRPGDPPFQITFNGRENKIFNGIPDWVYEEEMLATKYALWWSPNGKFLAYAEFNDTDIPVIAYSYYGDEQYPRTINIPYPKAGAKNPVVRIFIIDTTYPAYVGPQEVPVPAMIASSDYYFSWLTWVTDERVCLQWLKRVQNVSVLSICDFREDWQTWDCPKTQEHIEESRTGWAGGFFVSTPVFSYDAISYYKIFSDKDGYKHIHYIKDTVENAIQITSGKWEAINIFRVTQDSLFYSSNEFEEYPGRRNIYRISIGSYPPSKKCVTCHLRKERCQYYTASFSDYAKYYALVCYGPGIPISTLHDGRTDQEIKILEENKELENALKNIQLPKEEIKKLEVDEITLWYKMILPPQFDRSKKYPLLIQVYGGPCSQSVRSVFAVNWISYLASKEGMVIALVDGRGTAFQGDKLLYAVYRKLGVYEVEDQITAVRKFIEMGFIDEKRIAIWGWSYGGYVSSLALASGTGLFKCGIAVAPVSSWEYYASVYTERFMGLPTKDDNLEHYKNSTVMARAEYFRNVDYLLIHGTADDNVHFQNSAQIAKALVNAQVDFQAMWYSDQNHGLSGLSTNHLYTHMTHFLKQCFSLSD
Description: The Biacore 8K (Cytiva) instrument was used to detect ligand binding of the FAP protein (Sinobiological). The FAP protein was captured on the SA chip. Before ligand immobilization (flow paths 1 and 2, flow rate of 10 μL/min), the FAP protein (10 μg/mL, flow rate of 5 μL/min, injection time of 600 s) was immobilized on flow path 2 using running buffer, and the sensor surface was conditioned with three consecutive injections of 1 M NaCl in 50 mM NaOH. After each ligand injection, additional washing was carried out with isopropanol in 1 M NaCl and 50 mM NaOH (flow paths 1 and 2, flow rate of 10 μL/min, injection time of 60 s).
The test compounds were dissolved in 100% dimethyl sulfoxide and diluted to 10 mM, then further diluted in the assay buffer (PBS, pH 7.4, 1 mM TCEP ([…]), 0.05% P20, 2% dimethyl sulfoxide) to appropriate maximum concentrations. The analyte was run under the following conditions: analysis temperature=15° C., analysis step=all set to LMW kinetics; cycle type=single cycle (90 s contact time, 1800 s dissociation time, 30 μL/min flow rate, flow channels 1, 2); flow channel detection=2-1). Data evaluation was performed using Biacore Insight Evaluation Software, and the data were fitted to a 1:1 binding model.
The Biacore results are shown in Table 1: pKD=−Log KD, where KD is the binding affinity of the compound to the FAP protein as measured by Biacore. The binding affinity is expressed by KD (M)=Kd(1/s)/Ka(1/Ms). Where A: pKD>8, B: 7<pKD<8, C: 6<pKD<7, D: pKD<6.

[1] = system: HT1080 cell line with high FAP expression; assay: Therapeutic experiment of ^177Lu-labeled compounds in tumor-bearing mice; type: in vivo, Balb/c Nude mice; conditions: ^177Lu-labeled compound
Description: Balb/c Nude tumor-bearing mice (supplier: Shanghai Alamo Pharmaceutical Technology Co., Ltd., HT1080 cell line with high FAP expression) aged approximately 6-8 weeks were randomly assigned to 13 experimental groups based on tumor volume, with 5 mice per group. Animal body weight and tumor size were measured, and administration was initiated on the grouping day starting with Group 1 (control group: normal saline). General health and appearance were observed daily after the start of the experiment. Animal body weight and tumor size were measured before each sample collection time point. Any abnormal observations detected during the entire study period were required to be recorded in the raw data.
The synthesized compounds were labeled with ^177Lu and subsequently utilized in the therapeutic assay on mouse tumor models. […] Furthermore, no significant changes in mouse body weight (FIG. 8) were observed throughout the experimental period.
• TGI^TV: Relative tumor inhibition rate (TGI^TV): TGI^TV (%)=[1−(Ti−T0)/(Vi−V0)]×100%; • (Ti: average tumor volume of the treatment group on day i of administration, TO: average tumor volume of the treatment group on day 0 of administration; Vi: average tumor volume of the solvent control group on day i of administration, V0: average tumor volume of the solvent control group on day 0 of administration) • T/C: T/C % is one of the most commonly used indicators for tumor response to treatment: T/C %=T/C*100%; • (T represents the average tumor volume of the treatment group at a specific time point; C represents the average tumor volume of the control group at a specific time point.)
The differences between the treatment groups (tumor volumes of the second, third, fourth, and fifth groups) and the control group (tumor volume of the first group) and between the tumor volumes of the first, third, fourth, and fifth groups and the tumor volume of the second group were analyzed using the two-way ANOVA Fisher's LSD test method. P-values less than 0.05 were considered statistically significant. Both statistical significance and biological significance were taken into account during the result analysis.

[2] = EC50 (ng/mL) converted with molecular weight, read-out: EC50
[3] = competition with ^177Lu-FAPi-46, on ice 2 hours

Kd (FAP protein) [nM]	SMILES	also measured
–	N#C[C@@H]1CC(F)(F)CN1C(=O)CNC(=O)c1cccc2c1CNCC2 [Compound H4b]	EC50 (HT1080 8 #cells; [2]): 34.2 nM; EC50 (HT1080 8 #cells; [3]): 11.89 ng/mL
–	N#C[C@@H]1CC(F)(F)CN1C(=O)CNC(=O)c1cccc2c1CCNC2 [Compound H5b]	EC50 (HT1080 8 #cells; [2]): 452 nM; EC50 (HT1080 8 #cells; [3]): 157.5 ng/mL
–	N#C[C@@H]1CC(F)(F)CN1C(=O)CNC(=O)c1ccc2c(c1)CCCN2 [Compound H8b]	EC50 (HT1080 8 #cells; [2]): 9.24 nM; EC50 (HT1080 8 #cells; [3]): 3.219 ng/mL
10 to 100	O=C(O)CN1CCN(CC(=O)O)CCN(CC(=O)NCc2ccc(C(=O)N[C@H](CO)C(=O)N3CCC[C@H]3B(O)O)cc2)CCN(CC(=O)O)CC1 [JHB1]	–
100 to 1000	C[C@@H](NC(=O)c1ccc(CNC(=O)CCC(=O)NCCCC[C@H](NC(=O)CCC(=O)NCc2ccc(C(=O)N[C@H](C)C(=O)N3CCC[C@H]3B(O)O)cc2)C(=O)NCCOCCNC(=O)CN2CCN(CC(=O)O)CCN(CC(=O)O)CCN(CC(=O)O)CC2)cc1)C(=O)N1CCC[C@H]1B(O)O [JHDB2]	–
< 10	N#C[C@@H]1CC(F)(F)CN1C(=O)CNC(=O)c1ccc2c(c1)CCN(C(=O)CCC(=O)NCC(=O)N1CN(C(=O)CNC(=O)CCC(=O)N3CCc4cc(C(=O)NCC(=O)N5CC(F)(F)C[C@H]5C#N)ccc4C3)CN(C(=O)CNC(=O)CN3CCN(CC(=O)O)CCN(CC(=O)O)CCN(CC(=O)O)CC3)C1)C2 [JHDB6]	–
10 to 100	N#C[C@@H]1CC(F)(F)CN1C(=O)CNC(=O)c1cccc(C2CCN(C(=O)CCC(=O)NCC(=O)N3CN(C(=O)CNC(=O)CCC(=O)N4CCC(c5cccc(C(=O)NCC(=O)N6CC(F)(F)C[C@H]6C#N)c5)CC4)CN(C(=O)CNC(=O)CN4CCN(CC(=O)O)CCN(CC(=O)O)CCN(CC(=O)O)CC4)C3)CC2)c1 [JHDB7]	–
10 to 100	N#C[C@@H]1CC(F)(F)CN1C(=O)CNC(=O)c1cnc2c(c1)CCN(C(=O)CCC(=O)NCCNC(=O)CCC(C(=O)O)N1CCN(CC(=O)O)CCN(CC(=O)O)CCN(CC(=O)O)CC1)C2 (stereo partly drawn) [JHH1, 2,2′,2″-(10-(1-carboxy-4-((2-(4-(3-((2-((S)-2-cyano-4,4-difluoropyrrolidin-1-yl)-2-oxoethyl)carbamoyl)-5,8-dihydro-1,7-naphthyridin-7 (6H)-yl)-4-oxobutanamido)ethyl)amino)-4-oxobutyl)-1,4,7,10-tetraazacyclododecane-1,4,7-triyl)triacetic acid]	therapeutic effects in mouse tumor model [1]: dose-dependent therapeutic effects
10 to 100	N#C[C@@H]1CC(F)(F)CN1C(=O)CNC(=O)c1ccc2c(n1)CCN(C(=O)CCC(=O)NCCNC(=O)CCC(C(=O)O)N1CCN(CC(=O)O)CCN(CC(=O)O)CCN(CC(=O)O)CC1)C2 (some centres unmarked) [JHH2]	–
< 10	N#C[C@@H]1CC(F)(F)CN1C(=O)CNC(=O)c1cc2c(s1)CCN(C(=O)CCC(=O)NCCNC(=O)CCC(C(=O)O)N1CCN(CC(=O)O)CCN(CC(=O)O)CCN(CC(=O)O)CC1)C2 (some centres unmarked) [JHH3]	–
–	N#C[C@@H]1CC(F)(F)CN1C(=O)CNC(=O)c1cccc2c1CN(C(=O)CCC(=O)NCCNC(=O)CCC(C(=O)O)N1CCN(CC(=O)O)CCN(CC(=O)O)CCN(CC(=O)O)CC1)CC2 (some centres unmarked) [JHH4]	EC50 (HT1080 8 #cells; [2]): 1.3 nM; EC50 (HT1080 8 #cells; [3]): 1.231 ng/mL
100 to 1000	N#C[C@@H]1CC(F)(F)CC1C(=O)CNC(=O)c1ccc2c(c1)CCN(C(=O)CCC(=O)NCCNC(=O)CCC(C(=O)O)N1CCN(CC(=O)O)CCN(CC(=O)O)CCN(CC(=O)O)CC1)C2 (some centres unmarked) [JHH6]	–
< 10	C[C@@H]1CC(F)(F)CN1C(=O)CNC(=O)c1ccc2c(c1)CN(C(=O)CCC(=O)NCCNC(=O)CCC(C(=O)O)N1CCN(CC(=O)O)CCN(CC(=O)O)CCN(CC(=O)O)CC1)C2 (some centres unmarked) [JHH7]	–
< 10	N#C[C@@H]1CC(F)(F)CN1C(=O)CNC(=O)c1cc2c(s1)CCN(C(=O)CCC(=O)NCCNC(=O)CCNC(=O)CN1CCN(CC(=O)O)CCN(CC(=O)O)CCN(CC(=O)O)CC1)C2 [JHH11]	–
< 10	N#C[C@@H]1CC(F)(F)CN1C(=O)CNC(=O)c1ccc2c(c1)CCN(C(=O)CCC(=O)NCCNC(=O)CCNC(=O)CN1CCN(CC(=O)O)CCN(CC(=O)O)CCN(CC(=O)O)CC1)C2 [JHH12]	–
10 to 100	N#C[C@@H]1CC(F)(F)CN1C(=O)CNC(=O)c1ccc2c(c1)CCCN2C(=O)CCC(=O)NCCNC(=O)CCNC(=O)CN1CCN(CC(=O)O)CCN(CC(=O)O)CCN(CC(=O)O)CC1 [JHH13]	–
100 to 1000	C[C@@H](NC(=O)c1cnc2c(c1)CCN(C(=O)CCC(=O)NCCNC(=O)CCC(C(=O)O)N1CCN(CC(=O)O)CCN(CC(=O)O)CCN(CC(=O)O)CC1)C2)C(=O)N1CC(F)(F)C[C@H]1C#N (stereo partly drawn) [JHM1, 2,2′,2″-(10-(1-carboxy-4-((2-(4-(3-(((R)-1-((S)-2-cyano-4,4-difluoropyrrolidin-1-yl)-1-oxopropan-2-yl)carbamoyl)-5,8-dihydro-1,7-naphthyridin-7 (6H)-yl)-4-oxobutanamido)ethyl)amino)-4-oxobutyl)-1,4,7,10-tetraazacyclododecane-1,4,7-triyl)triacetic acid]	–
–	N#C[C@@H]1CC(F)(F)CN1C(=O)CNC(=O)c1ccnc2c(NC(=O)CCC(=O)NCCNC(=O)CCC(C(=O)O)N3CCN(CC(=O)O)CCN(CC(=O)O)CCN(CC(=O)O)CC3)cccc12 (some centres unmarked) [OncoFAP-DOTAGA, reference compound]	EC50 (HT1080 8 #cells; [2]): 2.81 nM; EC50 (HT1080 8 #cells; [3]): 2.699 ng/mL

SMILES	Kd (FAP protein) [nM]	also measured
N#C[C@@H]1CC(F)(F)CN1C(=O)CNC(=O)c1cccc(C2CCN(C(=O)CCC(=O)NCCNC(=O)CCC(C(=O)O)N3CCN(CC(=O)O)CCN(CC(=O)O)CCN(CC(=O)O)CC3)CC2)c1 (some centres unmarked) [JHH9]	< 10	therapeutic effects in mouse tumor model [1]: dose-dependent therapeutic effects
